Measured values reported in US20180071354A1, “SELECTIVE BREEDING METHOD OF ANTITUMOR/ANTICANCER CAMELLIA SINENSIS STRAIN, AND TEA PRODUCT OF SUCH STRAIN” (FUJIAN AGRICULTURE AND FORESTRY UNIVERSITY, priority 2015, published 2018).

Tests used:
[1] = tested on: HepG2 cells (human liver cancer cells) transplanted tumor; experiment: In vivo antitumor testing, first experiment (Animal Model 1); parameters: species or system BALB/c nude mice; details: 35 days, 5-fluorouracil 15.0 mg/kg per day intra-abdominal injection, Tea Product 1 0.6 mL of 10% per day intragastric gavage
Protocol: The establishment of Animal Model 1 is addressed as follows. […] SCXK (Hu) 2012-0002) were purchased from Shanghai Silaike Experiment Animal Co., Ltd and were acclimatized for one week. HepG2 cells (human liver cancer cells) mentioned in section C of Example 3 were cultivated in the corresponding complete medium (see Table 3) supplemented with 100 μg/mL penicillin and 100 μg/mL streptomycin in an incubator (37° C., 100% relative humidity, 5% CO2). When adherent cancer/tumor cells reached 97% confluence, the medium was removed. Cell detachment was conducted using trypsin, and the detached cells were transferred to a centrifuge tube. Centrifugation was conducted, and the resulting supernatant was removed. Staining was performed with a 0.4% trypan blue, and it was determined that the cell viability was higher than 97%. A cell suspension having a concentration of […] was prepared using PBS. 0.2 mL of the cell suspension was subcutaneously injected into each of the nude mice at a position posterior to the axilla. […] Tea Product 1 and Conventional Tea Product obtained in section A of Example 3, as well as 5-fluorouracil mentioned in section B of Example 3, were examined for their in vivo antitumor activity. […] In all the three experiments above, each of the nude mice was sacrificed 24 hours after the termination of the treatment. The tumor was collected and weighed. The antitumor effect of a respective test substance was evaluated by virtue of the percent tumor growth inhibition (%), which was calculated using the following Equation II: E=[(F−G)/(F)]×100% (I) • E=percent tumor growth inhibition (%) • F=tumor weight of control group • G=tumor weight of respective test substance group The experimental data are expressed as mean±SEM (standard error of the mean). The experimental data were subjected to one-way analysis of variance (ANOVA) using SPSS (Statistical Package for Social Sciences) software package version 11.5, such that the difference between the groups could be evaluated. The data regarding the tumor weights of the groups were subjected to t-test. […]

[2] = tested on: human cervical cancer cell line Hela; experiment: In vitro antitumor/anticancer testing (CCK-8), Hela; format: cell-based; details: 48 h
Protocol: (§1) Each of Tea Product 1 and Conventional Tea Product obtained in section A of this example was used to prepare test tea samples according to the method described below. A proper amount of the respective tea product was added into sterile water to prepare a stock solution with a concentration of 100 mg/mL, followed by using a membrane filter with a pore size of 0.22 μm to conduct vacuum filtration and sterilization. The resulting stock solution was diluted with a respective complete medium shown in Table 3 below to form test tea samples with different concentrations. In other words, the thus obtained test tea samples to be used for treating a respective cancer/tumor cell line shown in Table 3 were prepared using the same complete medium as that for the respective cancer/tumor cell line. […] Specifically, each of the aforesaid commercially available agents was subjected to the method described below to prepare comparative test samples. A proper amount of a respective commercially available agent was dissolved in phosphate-buffered saline (PBS) to prepare a stock solution with a concentration of 5 mg/mL, followed by using a membrane filter with a pore size of 0.22 μm to conduct vacuum filtration and sterilization. The resulting stock solution was diluted with a respective complete medium shown in Table 3 below to form comparative test samples with different concentrations. To be specific, the comparative test samples prepared from the respective commercially available agent have the concentrations shown in Table 2 below. The thus obtained comparative test samples to be used for treating a respective cancer/tumor cell line shown in Table 3 were prepared using the same complete medium as that for the respective cancer/tumor cell line. […] The cultivation of each cancer/tumor cell line is described as follows. […] Afterwards, a cell suspension having a cell density of 1.0×10^4 cells/mL was prepared. […] As experimental groups, the tumor/cancer cells of each cell line were treated with the test tea samples prepared from one or more of the tea products and the comparative test samples prepared from one or more of the commercially available agents as obtained in section B of this example (for more detailed information about the tea product(s) and the commercially available product (s) used to treat each cell line, please see Table 4 below). To be specific, 6 to 10 test tea samples prepared from the same tea product and having different concentrations, as well as 6 to 10 comparative test samples prepared from the same commercially available agent and having different concentrations, were utilized to treat the tumor/cancer cells of each cell line. For each experimental group, 6 repetitions of tumor/cancer treatment were performed. For the control group, 100 μL of PBS was added to a well containing the medium and the cancer/tumor cells of the respective cell line. For the blank group, 100 μL of PBS was added to a well containing a complete medium the same as that used for cultivation of the cancer/tumor cells of the respective cell line. After the treatment described above, cultivation was conducted in an incubator (37° C., 100% relative humidity, 5% CO2) for 48 hours. Subsequently, the liquid containing the medium and the sample in the well was removed, and a respective complete medium (shown in Table 3 above) containing 10% CCK-8 (Cell Counting Kit-8)(Dojindo Molecular Technologies, Inc., Cat. No. CK04-13) was added. Cultivation was performed in an incubator (37° C.) for 2 to 4 hours, followed by gently shaking.

[3] = tested on: human glioblastoma cell line U-87MG; experiment: In vitro antitumor/anticancer testing (CCK-8), U-87MG; format: cell-based; details: 48 h
Protocol: as §1

In the case of `O=c1[nH]cc(F)c(=O)[nH]1` [5-fluorouracil], the “Body weight After treatment” value [1] is reported as 72.90 g, the “Percent tumor growth inhibition” value [1] is reported as 80.84% and the Tumor weight [1] is reported as 0.08 g.

`O=C(O[C@@H]1Cc2c(O)cc(O)cc2O[C@@H]1c1cc(O)c(O)c(O)c1)c1cc(O)c(O)c(O)c1` [EGCG monomer, epigallocatechin gallate] showed a Percent growth inhibition ([2]; 0.3125 μg/mL) of 4.13%, a Percent growth inhibition ([2]; 0.625 μg/mL) of −0.68% and a Percent growth inhibition ([2]; 1.25 μg/mL) of 1.08%. It also gave a Percent growth inhibition ([2]; 2.5 μg/mL) of −8.94%, a Percent growth inhibition ([2]; 5 μg/mL) of −6.50% and a Percent growth inhibition ([2]; 10 μg/mL) of −22.63%. The Percent growth inhibition ([2]; 20 μg/mL) was −20.22%, the Percent growth inhibition ([2]; 40 μg/mL) was −23.80% and the Percent growth inhibition ([2]; 80 μg/mL) was 36.66%. The IC50 ([2]; Hela) was “IC50 (μg/mL) = 101.2”, the Percent growth inhibition ([3]; 2.5 μg/mL) was 2.29% and the Percent growth inhibition ([3]; 5 μg/mL) was 2.94%. For the same compound, the Percent growth inhibition ([3]; 10 μg/mL) was 5.82%, the Percent growth inhibition ([3]; 20 μg/mL) was 15.72% and the Percent growth inhibition ([3]; 40 μg/mL) was 15.15%. The Percent growth inhibition ([3]; 80 μg/mL) was 2.45%, the Percent growth inhibition ([3]; 160 μg/mL) was 82.81% and the Percent growth inhibition ([3]; 320 μg/mL) was 98.43%. For the same compound, the Percent growth inhibition ([3]; 640 μg/mL) was 98.03% and the IC50 ([3]; U-87MG) was “IC50 (μg/mL) = 76.85”.
